Laboratory results: the supplement of paper PMC11061612

What was measured:
[1] = tested on: VCaP (Prostate Carcinoma); experiment: combination Emax (second highest fraction inhibited in the dose matrix, 72 h); higher = more inhibition; extreme values may be limits of the assay
Summary of the method: (§1)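 Cell lines grown in DMEM/F12 or RPMI with 10% FBS were plated in 1536-well plates and held 24 hours at 37°C, 5% CO2 before 72 hours of exposure to two-drug dose matrices, with DMSO typically at 0.2%. CellTiter-Glo 2.0 luminescence gave viability, which was converted to inhibition. Vehicle wells were set to 0 and blank wells to 1. Combination Emax is the second-highest inhibition in the matrix, and Bliss excess is the observed combination effect minus the expected EA + EB − EA·EB, where EA and EB are the single-agent effects.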

[2] = tested on: BICR22 (Oral Cavity Carcinoma); experiment: as above
Summary of the method: as §1

[3] = tested on: CCK-81 (Colorectal Carcinoma); experiment: as above
Summary of the method: as §1

[4] = tested on: CAPAN-2 (Pancreatic Carcinoma); experiment: as above
Summary of the method: as §1

[5] = tested on: ONS-76 (Other Solid Carcinomas); experiment: as above
Summary of the method: as §1

[6] = tested on: TT (Thyroid Gland Carcinoma); experiment: as above
Summary of the method: as §1

[7] = tested on: COLO-320-HSR (Colorectal Carcinoma); experiment: as above
Summary of the method: as §1

[8] = tested on: NCI-H2066 (Squamous Cell Lung Carcinoma); experiment: as above
Summary of the method: as §1

NY (Osteosarcoma) [9] = experiment: as above
Summary of the method: as §1

FU97 (Gastric Carcinoma) [10] = experiment: as above
Summary of the method: as §1

[11] = tested on: PANC-10-05 (Pancreatic Carcinoma); experiment: as above
Summary of the method: as §1

[12] = tested on: KARPAS-422 (B-Cell Non-Hodgkin's Lymphoma); experiment: as above
Summary of the method: as §1

IGR-37 (Melanoma) [13] = experiment: as above
Summary of the method: as §1

[14] = tested on: NCI-H64 (Small Cell Lung Carcinoma); experiment: as above
Summary of the method: as §1

[15] = tested on: NCI-H1581 (Non-Small Cell Lung Carcinoma); experiment: as above
Summary of the method: as §1

[16] = tested on: NCI-H1666 (Lung Adenocarcinoma); experiment: as above
Summary of the method: as §1

U-2-OS (Osteosarcoma) [17] = experiment: as above
Summary of the method: as §1

[18] = tested on: ECC10 (Gastric Carcinoma); experiment: as above
Summary of the method: as §1

[19] = tested on: VCaP (Prostate Carcinoma); experiment: Bliss excess, mean over the matrix (fraction); higher = more synergy
Summary of the method: as §1

[20] = tested on: BICR22 (Oral Cavity Carcinoma); experiment: as above
Summary of the method: as §1

[21] = tested on: CCK-81 (Colorectal Carcinoma); experiment: as above
Summary of the method: as §1

[22] = tested on: CAPAN-2 (Pancreatic Carcinoma); experiment: as above
Summary of the method: as §1

[23] = tested on: ONS-76 (Other Solid Carcinomas); experiment: as above
Summary of the method: as §1

[24] = tested on: TT (Thyroid Gland Carcinoma); experiment: as above
Summary of the method: as §1

[25] = tested on: COLO-320-HSR (Colorectal Carcinoma); experiment: as above
Summary of the method: as §1

[26] = tested on: NCI-H2066 (Squamous Cell Lung Carcinoma); experiment: as above
Summary of the method: as §1

NY (Osteosarcoma) [27] = experiment: as above
Summary of the method: as §1

FU97 (Gastric Carcinoma) [28] = experiment: as above
Summary of the method: as §1

[29] = tested on: PANC-10-05 (Pancreatic Carcinoma); experiment: as above
Summary of the method: as §1

[30] = tested on: KARPAS-422 (B-Cell Non-Hodgkin's Lymphoma); experiment: as above
Summary of the method: as §1

IGR-37 (Melanoma) [31] = experiment: as above
Summary of the method: as §1

[32] = tested on: NCI-H64 (Small Cell Lung Carcinoma); experiment: as above
Summary of the method: as §1

[33] = tested on: NCI-H1581 (Non-Small Cell Lung Carcinoma); experiment: as above
Summary of the method: as §1

[34] = tested on: NCI-H1666 (Lung Adenocarcinoma); experiment: as above
Summary of the method: as §1

U-2-OS (Osteosarcoma) [35] = experiment: as above
Summary of the method: as §1

[36] = tested on: ECC10 (Gastric Carcinoma); experiment: as above
Summary of the method: as §1
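Wherever Bliss excess, mean over the matrix is given: after 72 h of two-drug dosing.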

Row | Compound | combination Emax [1] | combination Emax [2] | combination Emax [3] | combination Emax [4] | combination Emax [5] | combination Emax [6] | combination Emax [7] | combination Emax [8] | combination Emax (NY (Osteosarcoma) [9]) | combination Emax (FU97 (Gastric Carcinoma) [10]) | combination Emax [11] | combination Emax [12] | combination Emax (IGR-37 (Melanoma) [13]) | combination Emax [14] | combination Emax [15] | combination Emax [16] | combination Emax (U-2-OS (Osteosarcoma) [17]) | combination Emax [18] | Bliss excess [19] | Bliss excess [20] | Bliss excess [21] | Bliss excess [22] | Bliss excess [23] | Bliss excess [24] | Bliss excess [25] | Bliss excess [26] | Bliss excess (NY (Osteosarcoma) [27]) | Bliss excess (FU97 (Gastric Carcinoma) [28]) | Bliss excess [29] | Bliss excess [30] | Bliss excess (IGR-37 (Melanoma) [31]) | Bliss excess [32] | Bliss excess [33] | Bliss excess [34] | Bliss excess (U-2-OS (Osteosarcoma) [35]) | Bliss excess [36]
1 | O=C(c1cc(Cc2n[nH]c(=O)c3ccccc23)ccc1F)N1CCN(C(=O)C2CC2)CC1 [Olaparib] + CN(CC[C@H](CSC1=CC=CC=C1)NC2=C(C=C(C=C2)S(=O)(=O)NC(=O)C3=CC=C(C=C3)N4CCC(CC4)[C@H](C5=CC=CC=C5C6=CC=C(C=C6)Cl)O)S(=O)(=O)C(F)(F)F)CCO [AZD4320] (first compound max 10 µM, 7x7, partner max 1 µM) | 0.128 | 0.255 | 0.124 | 0.462 | 0.181 | 0.538 | 0.19 | 0.351 | 0.195 | 0.212 | 0.164 | 0.925 | 0.275 | 0.95 | 0.3 | 0.124 | 0.202 | 1 | -0.0444 | 0.0041 | -0.0283 | -0.0461 | -0.0216 | 0.0271 | 0.016 | -0.097 | 0.0263 | -0.0426 | -0.0548 | -0.0348 | 0.0028 | -0.0325 | 0.0118 | -0.0702 | -0.0213 | 0.0135
2 | C[C@@H](Oc1cc(-c2cnn(C3CCNCC3)c2)cnc1N)c1c(Cl)ccc(F)c1Cl [Crizotinib] + CC1=C(C(=CC=C1)Cl)NC(=O)C2=CN=C(S2)NC3=CC(=NC(=N3)C)N4CCN(CC4)CCO [Dasatinib] (first compound max 10 µM, 7x7, partner max 2 µM) | 0.587 | 0.89 | 0.892 | 0.78 | 0.894 | 0.274 | 0.699 | 0.587 | 0.519 | 0.446 | 0.813 | 0.886 | 0.645 | 0.594 | 0.359 | 0.807 | 0.617 | 0.679 | -0.0665 | 0.0433 | 0.0191 | 0.0443 | 0.0996 | -0.0751 | -0.0425 | -0.0202 | 0.0882 | -0.0237 | 0.0003 | 0.0411 | -0.0317 | -0.0238 | -0.0363 | -0.0103 | 0.0199 | -0.0263
3 | C[C@@H](Nc1cc(F)cc(F)c1)c1cc(C(=O)N(C)C)cc2c(=O)cc(N3CCOCC3)oc12 [AZD8186] + C1CN(CCC1(C(=O)N[C@@H](CCO)C2=CC=C(C=C2)Cl)N)C3=NC=NC4=C3C=CN4 [AZD5363] (first compound max 10 µM, 7x7, partner max 10 µM) | 0.443 | 0.308 | 0.266 | 0.285 | 0.312 | 0.415 | 0.184 | 0.513 | 0.325 | 0.374 | 0.436 | 0.628 | 0.44 | 0.277 | 0.101 | 0.406 | 0.279 | 0.276 | -0.0177 | 0.0421 | -0.0118 | -0.0305 | -0.028 | -0.0413 | 0.0159 | -0.0364 | 0.0425 | -0.0072 | -0.0847 | -0.106 | 0.0334 | 0.0116 | -0.0207 | -0.0707 | -0.0324 | 0.0141
4 | O=C(c1cc(Cc2n[nH]c(=O)c3ccccc23)ccc1F)N1CCN(C(=O)C2CC2)CC1 [Olaparib] + CC1(C)CCC(CN2CCN(c3ccc(C(=O)NS(=O)(=O)c4ccc(NCC5CCOCC5)c([N+](=O)[O-])c4)c(Oc4cnc5[nH]ccc5c4)c3)CC2)=C(c2ccc(Cl)cc2)C1 [Venetoclax] (first compound max 10 µM, 7x7, partner max 1 µM) | 0.101 | 0.0823 | 0.148 | 0.0502 | 0.17 | 0.208 | 0.176 | 0.136 | 0.188 | 0.104 | 0.125 | 0.611 | 0.3 | 0.166 | 0.234 | 0.104 | 0.109 | 0.706 | -0.0434 | -0.0428 | -0.0382 | -0.0398 | -0.014 | -0.0158 | 0.0038 | -0.0521 | 0.0029 | -0.0322 | -0.059 | 0.0071 | 0.0143 | 0.0167 | -0.0035 | -0.0661 | -0.0331 | 0.0155
5 | Cc1c2c(nn1C)CSCc1cc(n(C)n1)CSc1cc(c3ccccc3c1)OCCCc1c(C(=O)O)n(C)c3c-2c(Cl)ccc13 [AZD5991] + CS(=O)(=O)CCNCc1ccc(-c2ccc3ncnc(Nc4ccc(OCc5cccc(F)c5)c(Cl)c4)c3c2)o1 [Lapatinib] (first compound max 1 µM, 7x7, partner max 10 µM) | 0.96 | 0.969 | 1 | 0.186 | 0.294 | 0.237 | 1 | 0.426 | 0.564 | 0.906 | 0.474 | 0.965 | 0.36 | 0.111 | 0.968 | 0.942 | 0.197 | 0.975 | -0.0052 | 0.0948 | 0.055 | -0.0087 | -0.0232 | 0.0128 | 0.0422 | -0.0195 | -0.0523 | -0.0583 | -0.0585 | -0.0425 | -0.0622 | -0.0332 | -0.0138 | 0.0641 | -0.0345 | 0.0088
6 | Cc1c2c(nn1C)CSCc1cc(n(C)n1)CSc1cc(c3ccccc3c1)OCCCc1c(C(=O)O)n(C)c3c-2c(Cl)ccc13 [AZD5991] + CC(=O)O[C@H]1C(=O)[C@@]2(C)[C@H]([C@H](OC(=O)c3ccccc3)[C@]3(O)C[C@H](OC(=O)[C@H](O)[C@@H](NC(=O)c4ccccc4)c4ccccc4)C(C)=C1C3(C)C)[C@]1(OC(C)=O)CO[C@@H]1C[C@@H]2O [Paclitaxel] (first compound max 1 µM, 7x7, partner max 3 µM) | 0.977 | 0.98 | 0.989 | 0.144 | 0.644 | 0.26 | 0.991 | 0.589 | 0.963 | 0.257 | 0.569 | 0.996 | 0.885 | 0.719 | 1 | 0.563 | 0.735 | 0.942 | 0.0074 | 0.0021 | -0.0396 | 0.0086 | -0.0383 | -0.0423 | -0.0443 | -0.027 | 0.0268 | -0.0142 | 0.0368 | 0.0084 | 0.0439 | 0.0573 | 0.0114 | -0.0239 | -0.0291 | -0.0567
7 | Cc1c2c(nn1C)CSCc1cc(n(C)n1)CSc1cc(c3ccccc3c1)OCCCc1c(C(=O)O)n(C)c3c-2c(Cl)ccc13 [AZD5991] + Nc1ccn([C@@H]2O[C@H](CO)[C@@H](O)C2(F)F)c(=O)n1 [Gemcitabine] (first compound max 1 µM, 7x7, partner max 0.3 µM) | 0.977 | 0.957 | 0.942 | 0.101 | 0.499 | 0.405 | 0.944 | 0.184 | 0.88 | 0.232 | 0.472 | 0.979 | 0.79 | 0.37 | 0.998 | 0.473 | 0.387 | 0.935 | 0.0667 | -0.0254 | 0.0013 | -0.035 | 0.0088 | -0.0048 | -0.0386 | -0.0415 | -0.0564 | 0.0193 | -0.0263 | -0.0219 | 0.011 | 0.0292 | 0.0459 | -0.0299 | -0.0017 | 0.0593
